Experiment: refractive index (Na D-line) (dimensionless); xn = mol fraction of the nth substance listed
Conditions: 101 kPa, Liquid, Standard Abbe refractometry

CCCCn1cc[n+](C)c1.F[B-](F)(F)F [1-butyl-3-methylimidazolium tetrafluoroborate] + CO
refractive index
Conditions | 288.15 K | 298.15 K | 308.15 K | 318.15 K
x1 = 0.0113 | 1.337 | 1.3325 | 1.3285 | 1.3246
x1 = 0.0235 | 1.3428 | 1.3381 | 1.3343 | 1.3305
x1 = 0.0366 | 1.3481 | 1.3435 | 1.3398 | 1.3365
x1 = 0.0509 | 1.3539 | 1.3488 | 1.3453 | 1.3419
x1 = 0.0845 | 1.364 | 1.3595 | 1.3562 | 1.3536
x1 = 0.1254 | 1.3729 | 1.369 | 1.3657 | 1.3629
x1 = 0.1771 | 1.3827 | 1.3788 | 1.3754 | 1.3726
x1 = 0.2441 | 1.3912 | 1.3877 | 1.3845 | 1.3813
x1 = 0.3338 | 1.3999 | 1.3966 | 1.3934 | 1.3904
x1 = 0.4626 | 1.4082 | 1.4052 | 1.4022 | 1.3993
x1 = 0.5482 | 1.4123 | 1.4093 | 1.4064 | 1.4036
x1 = 0.6589 | 1.4163 | 1.4135 | 1.4107 | 1.408
x1 = 0.8037 | 1.4204 | 1.4177 | 1.415 | 1.4124
x1 = 1 | 1.4243 | 1.4217 | 1.419 | 1.4164

CCn1cc[n+](C)c1.F[B-](F)(F)F [1-ethyl-3-methylimidazolium tetrafluoroborate] + CO
refractive index
Conditions | 288.15 K | 298.15 K | 308.15 K | 318.15 K
x1 = 0.0136 | 1.3368 | 1.3324 | 1.3286 | 1.3247
x1 = 0.0283 | 1.3419 | 1.3376 | 1.3337 | 1.33
x1 = 0.044 | 1.3466 | 1.3423 | 1.3389 | 1.3357
x1 = 0.0615 | 1.3515 | 1.3474 | 1.3439 | 1.3402
x1 = 0.101 | 1.3604 | 1.3566 | 1.353 | 1.3495
x1 = 0.1485 | 1.3697 | 1.3659 | 1.3627 | 1.3592
x1 = 0.2073 | 1.3785 | 1.3749 | 1.3715 | 1.3685
x1 = 0.2817 | 1.3865 | 1.383 | 1.38 | 1.3768
x1 = 0.379 | 1.3937 | 1.3905 | 1.3874 | 1.3845
x1 = 0.5111 | 1.4008 | 1.3978 | 1.3949 | 1.3922
x1 = 0.5959 | 1.404 | 1.4012 | 1.3985 | 1.3958
x1 = 0.7027 | 1.4075 | 1.4048 | 1.4022 | 1.3996
x1 = 0.8297 | 1.4109 | 1.4082 | 1.4056 | 1.4031
x1 = 1 | 1.4143 | 1.4118 | 1.4092 | 1.4067
